Data published in patent publication US10208049B2, “Compounds and methods of treating ocular disorders” (Case Western Reserve University, priority 2009, dated 2019).

What was measured:
Rdh8−/−Abca4−/− mice = experiment: SD-OCT grading of retinal degeneration in light-exposed Rdh8−/−Abca4−/− mice; format: in vivo, mouse; settings: for effectiveness in treating retinal degeneration in the mice: ABCA4−/−/RDH8−/− mice, effective = OCT score at least about 2.5 and 11-cis-retinal increase at least about 30%; for Score OCT: Rdh8−/−Abca4−/− mice, SD-OCT 7 days after 10,000 lux illumination for 30 min at 4 weeks of age, score 5 = no degeneration, 1 = severe, No Treatment 1
Text: (§1) We tested 21 drugs containing primary amino groups to determine if they react with the aldehyde group of all-trans-RAL to reduce its toxic levels in the eye after exposure to light and prevent its condensation into toxic conjugates. […] For these experiments, we used ABCA4^−/−/RDH8^−/− mice as models for Stargardt's disease and AMD. We employed analytical methods for determining the pharmacodynamics and pharmacokinetics of candidate drugs including: HPLC/MS/MS for analysis of retinoids and histological sections and OCT for assessment of retinal pathology. The relative amount of retinoids and their composition strongly correlates with the health status of the retina. […] Methodologies for performing the analysis on ABCA4^−/−/RDH8^−/− mice is described below.
(§2) Abca4^−/− mice also were generated by standard procedures (Ingenious Targeting, Inc., Stony Brook, N.Y.). […] Rdh8^−/−Abca4^−/− mice were established by crossbreeding Abca4^−/− mice with Rdh8^−/− mice. […] PCR products were cloned and sequenced to verify their identities.
Although analytical and histological methods provide exhaustive characterization of retina, they cannot be performed in vivo. To reduce the number of sacrificed animals and time required for analysis, SD-OCT from Bioptigen (Research Triangle Park, N.C.) was employed for in vivo imaging of mouse retinas. Bioptigen OCT systems utilize a narrow single-mode beam from a wide bandwidth light source to probe the structure of retina at a higher resolution (2.0 μm) than normal OCT systems. Mice were anesthetized by intraperitoneal (IP) injection of 20 μl/g bw of 6 mg/ml ketamine and 0.44 mg/ml xylazine diluted with 10 mM sodium phosphate, pH 7.2, containing 100 mM NaCl. Pupils were dilated with 1% tropicamide. In vivo SD-OCT images were obtained from both eyes. Four pictures acquired in a B-scan mode were used to construct the final averaged images (FIG. 8).
In vivo retinal structures of Rdh8^−/−Abca4^−/− mice are imaged by SD-OCT 7 days after 10,000 lux illumination for 30 min at 4 weeks of age.

ABCA4−/−/RDH8−/− mice = experiment: HPLC analysis of 11-cis-retinal in eyes of ABCA4−/−/RDH8−/− mice; format: in vivo, mouse; settings: HPLC peak area of 11-cis-retinal, No Treatment 88.2
Text: as §1, §2
All experimental procedures related to extraction, derivatization, and separation of retinoids from dissected mouse eyes were carried out under dim red light. Two whole mouse eyes were homogenized in 1 ml of 50 mM phosphate buffer, pH 7.0, containing 50% ethanol and 10 mM NH2OH. Ice-cold methanol (1 ml) was added to the homogenates 20 min after incubation at room temperature (RT), non-polar retinoids were extracted twice with 4 ml of hexane. The organic phase was collected, dried down in a SpeedVac and re-solubilized in 0.3 ml of hexane. […] Retinoids were detected at 325 nm (retinyl esters and retinols) and 350 nm (retinyl oximes) with a diode array detector. Those of interest were quantified based on the areas under their peaks calculated with the help of HP Chemstation A.03.03 software and compared with areas calculated based on known amounts of synthetic standards plotted as a standard curve.

[1] = Formation of Schiff base between retinal and selected amines (UV/Vis spectra); format: physicochemical; settings: 90% ethanol in water, 0.1 M phosphate buffer pH 7.0, 2 molar excess of amine, 1 h room temperature
Experimental: Formation of conjugates (Schiff-base) between retinal and primary amine compounds containing amino group (putative drugs) is the key mechanism to control all-trans-RAL levels in the retina and prevent retina degeneration. Stability of these conjugates is an important factor that can determine biological activity of the drugs. To standardize conditions of Schiff-base formation all reactions were performed in 90% ethanol in water buffered with 0.1 M phosphate buffer, pH 7.0. Stock solution of retinal was made up freshly in ethanol. Its final concentration was determined spectrophotometrically at 380 nm (ε=42,880). All procedures were carried out in the dark. Schiff base formation was initiated by addition of retinal stock solution to a 2 molar excess of tested amine dissolved in the reaction buffer. The reaction mixture was incubated for 1 h in room temperature.
Steady-state rate of Schiff-base formation was obtained from absorbance changes at 380 and 440 nm (510 nm for aromatic amines) corresponding to free retinal and protonated Schiff base, respectively. To investigate stability of the given retinal conjugates a mixture of HPLC purified Schiff base of selected compound and phosphatidylocholine was dried down in SpeedVac. Then, Schiff-base and lipids were overlaid with 0.1 M phosphate buffer and sonicated immediately to form liposomes. The samples were extracted with hexane following 30 min incubated in room temperature. The breakdown of Schiff-base was monitored by HPLC detection of free retinal extracted from the reaction mixture.
FIGS. 3-5 illustrate UV/Vis spectra for the FDA approved drugs. FDA approved drugs that were active readily formed a Schiff base with all-trans-RAL as evidenced by a substantial differential between spectra of unprotonated and protonated Schiff base.

Compound	effectiveness in treating retinal degeneration in the mice (Rdh8−/−Abca4−/− mice)	11cRAL (area) (ABCA4−/−/RDH8−/− mice)	Score OCT (Rdh8−/−Abca4−/− mice)	formation of stable Schiff-base with all-trans-RAL [1]
CC(C)C[C@@H](CN)CC(=O)O [(R)-3-(aminomethyl)-5-methylhexanoic acid]	effective in treating retinal degeneration	164.8	–	–
Nc1ccc(C(=O)NCC(=O)[O-])cc1.[Na+] [Aminohippurate Sodium]	–	109.4	1	–
Nc1ccc(O)c(C(=O)O)c1 [Asacol]	effective in treating retinal degeneration	140.2	–	–
CC(C)(S)[C@@H](N)C(=O)O [Cuprimine]	–	118.5	1.7	did not readily form stable Schiff-bases
Nc1ccc(S(=O)(=O)c2ccc(N)cc2)cc1 [Dapsone]	effective in treating retinal degeneration	156.5	–	–
CC(N)C12CC3CC(CC(C3)C1)C2 (stereo not drawn) [Flumadine]	effective in treating retinal degeneration	135.3	–	–
N[C@@H](CC(=O)N1CCn2c(nnc2C(F)(F)F)C1)Cc1cc(F)c(F)cc1F [Januvia]	effective in treating retinal degeneration	126.8	–	–
COCCCC/C(=N\OCCN)c1ccc(C(F)(F)F)cc1 [Luvox]	effective in treating retinal degeneration	175.5	–	–
CC(C)C[C@H](CN)CC(=O)O [Lyrica, (S)-3-(aminomethyl)-5-methylhexanoic acid]	effective in treating retinal degeneration	166.5	–	readily formed stable Schiff-bases
CC12CC3CC(C)(C1)CC(N)(C3)C2 [Nameda]	–	97.6	1.7	–
Nc1ccc(C(=O)O)c(O)c1 [Paser]	effective in treating retinal degeneration	151.9	–	readily formed stable Schiff-bases
Nc1ccc(C(=O)[O-])cc1.[K+] [Potaba]	–	90.6	2.3	did not readily form stable Schiff-bases
NCCCC[C@H](N[C@@H](CCc1ccccc1)C(=O)O)C(=O)N1CCC[C@H]1C(=O)O [Prinivil]	–	132.7	2.0	–
N[C@@H]1CON=C1O [Seromycin]	effective in treating retinal degeneration	159.9	–	readily formed stable Schiff-bases
NS(=O)(=O)c1cc2c(cc1Cl)N=C[N-]S2(=O)=O.[Na+] [Sodium Diuril]	effective in treating retinal degeneration	139.7	–	–
NCc1ccc(S(N)(=O)=O)cc1 [Sulfamylon]	effective in treating retinal degeneration	166.1	–	–
CCOC(=O)C1=C[C@@H](OC(CC)CC)[C@H](NC(C)=O)[C@@H](N)C1 [Tamiflu]	–	87.3	1.3	–
